# Experimental data as given in US20140196172A1, “Organelle Targeting Nanocarriers” (Her Majesty the Queen in Right of Canada, as Repre sented …, priority 2011, published 2014).
# System: proplastids of triticale microspores
# Test: qRT-PCR of gfp mRNA, microspores transfected with pWCaadA16GFP
# Assay type: cell-based
# Settings: gfp reporter construct
# Description: FIG. 18 is a plot showing the level of expression (fold increase, average of 4 replicates) of GFP in triticale microspores transfected with the pWCaadA16GFP plasmid in the presence of cTP1 (SEQ ID NO: 6), cTP2 (SEQ ID NO: 7), cTP3 (SEQ ID NO: 8), cTP4 (SEQ ID NO: 9) or cTP5 (SEQ ID NO: 10) compared to the level of expression (fold increase) of the internal control elongation factor 1a (EF1a), as measured by quantitative real time PCR of mRNA levels;
# Wheat chloroplast aadA16GFP reporter plasmid (pWCaadA16GFP, FIG. 12) is a 4212 base pair wheat specific plastid transformation vector, which targets insertions into the tml-tmA inverted repeat regions of the Triticum aestivum plastid genome at nucleotides 92850-93727 and 93794-94671 (GenBank accession No. AB042240.3). A multiple cloning site is introduced following the tml target insertion sequence. The selection marker gene is an organelle codon specific aad-gfp fusion gene, which facilitates a dual selection method of spectinomycin resistance through an aadA derivative and visual detection by GFP fluorescence (GenBank accession No. ABX39486; Khan and Maliga, Nat. Biotechnol. (1999 September) 17(9): 910-5). The selection marker gene is driven by the Triticum aestivum plastid genome promoter (psbA) at nucleotides 1282-1153 (GenBank accession No. AB042240.3). The aad-gfp fusion gene is terminated with the rice psbA terminator sequence derived from chloroplast transformation vector pVSR326 nucleotides 4014-4387 (GenBank accession No. AF527485.1).
# The dsDNA construct (pWMaadA16GFP for mitochondrial expression or pWCaadA16GFP for expression in chloroplasts) is combined with the mTP (for mitochondrial expression) or cTP (for expression in chloroplasts) in the amounts used in the protoplast transformation experiments described above in a final volume of 100 μl of NBP-99 solution. The mixture is incubated for 10 minutes at room temperature, then incubated with isolated triticale microspores (500 μl, 10^6 microspores/ml, prepared as described in Example 2) for 1 h in the dark at room temperature. NBP-99 solution (500 μl) is added and the mixture is incubated in the dark for 24 h. The cells are imaged using confocal microscopy, as described in Example 2, using MitoTracker® Orange staining to visualize mitochondria.
# Microspores are disrupted using a cleaned ceramic bead and aggressive shaking as the tissue is thawing. RLT buffer/B-Me (450 μl) is added and the sample is vortexed. The sample is heated at 55° C. for 1 minute and vortexed again. RNA is extracted using an RNeasy™ Plant Mini Kit (Qiagen), incorporating on-column DNase I digestion into the protocol. The final elution volume is 40 μl. RNA is assessed using both agarose gel […] (to ensure RNA is intact) and spectrophotometry (for quantification).
# cDNA is generated using a First Strand Synthesis kit (Invitrogen). RNA (1 μg) is added to each sample and the manufacturer's protocol for synthesis followed, with the exception that the volume of the reaction mixture is increased from 20 μl to 30 μl. A negRT sample containing all reagents but no RNA is included in the cDNA synthesis as a negative control.
# Standard curves are generated for both elongation factor 1a (EF1a) (internal control) and green fluorescent protein (GFP) (test) genes. […]
# Real time PCR reactions are performed using QuantiTect™ SYBR™ Green PCR Master Mix (Qiagen) in a 20 μl reaction volume. […]
row,Sequence,GFP expression by proplastids confirmed by qRT-PCR
1,MAALIPAIASLPRAQVEKPHPMPVSTRPGLVS (listed as Triticum aestivum) [cTP4],GFP is expressed
2,MGGCVSTPKSCVGAKLR (listed as Arabidopsis thaliana) [cTP1],GFP is expressed
3,MQTLTASSSVSSIQRHRPHPAGRRSSSVTFS (listed as Triticum aestivum) [cTP2],GFP is expressed
4,MSSPPPLFTSCLPASSPSIRRDSTSGSVTSPLR (listed as Arabidopsis thaliana) [cTP5],GFP is expressed
